In patent US6974831B2, “sPLA2 inhibitors” (Eli Lilly and Company, priority 2000, dated 2005):

system: not given; experiment: not given; details: not given

SMILES	melting point
COC(=O)COc1cc2c(c3c1c(C(=O)C(N)=O)c(C)n3Cc1ccc(F)cc1)CCC2 [Example 10, 2-[[3-(2-Amino-1,2-dioxoethyl)-2-methyl-1-(4-fluorobenzyl)-1,6,7,8-tetrahydrocyclopent[g]indol-4-yl]oxy]acetic acid methyl ester]	222 to 224 °C

biological target: T1, recombinant human secreted phospholipase A2 (Homo sapiens, UniProt P14555); experiment: chromogenic assay of sPLA2 inhibition (diheptanoyl thio-PC / DTNB, 96 well microtiter plates); assay type: biochemical; details: absorbance at 405 nanometers, 40° C. for 30 minutes, pH 7.5, titrated in triplicate and averaged
T1 sequence (P14555 21-144): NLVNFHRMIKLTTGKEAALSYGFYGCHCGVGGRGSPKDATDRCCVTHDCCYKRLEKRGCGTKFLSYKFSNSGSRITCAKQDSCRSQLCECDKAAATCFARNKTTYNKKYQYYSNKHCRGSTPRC
Excerpt: The following chromogenic assay procedure was used to identify and evaluate inhibitors of recombinant human secreted phospholipase A2. The assay described herein has been adapted for high volume screening using 96 well microtiter plates. A general description of this assay method is found in the article, “Analysis of Human Synovial Fluid Phospholipase A2 on Short Chain Phosphatidylcholine-Mixed Micelles: Development of a Spectrophotometric Assay Suitable for a Microtiterplate Reader”, by Laure J. Reynolds, Lori L. Hughes, and Edward A Dennis, Analytical Biochemistry, 204, pp. 190-197, 1992 (the disclosure of which is incorporated herein by reference):
REACTION BUFFER— • CaCl2.2H2O (1.47 g/L) • KCl (7.455 g/L) • Bovine Serum Albumin (fatty acid free) (1 g/L) • (Sigma A-7030, product of Sigma • Chemical Co., St. Louis Mo., USA) • TRIS HCl (3.94 g/L) • pH 7.5 (adjust with NaOH)
ENZYME BUFFER— • 0.05 NaOAc.3H2O, pH 4.5 • 0.2 NaCl • Adjust pH to 4.5 with acetic acid
DTNB—5,5′-dithiobis-2-nitrobenzoic acid
RACEMIC DIHEPTANOYL THIO—PC • racemic 1,2-bis(heptanoylthio)-1,2-dideoxy-sn-glycero-3-phosphorylcholine • TRITON X-100™ prepare at 6.249 mg/ml in reaction buffer to equal […].
A measured volume of racemic dipheptanoyl thio PC supplied in chloroform at a concentration of 100 mg/ml is taken to dryness and redissolved in 10 millimolar TRITON X-100™ nonionic detergent aqueous solution. Reaction Buffer is added to the solution, then DTNB to give the Reaction Mixture.
The reaction mixture thus obtained contains 1 mM diheptanoly thio-PC substrate, 0.29 mm Triton X-100™ detergent, and 0.12 mm DTMB in a buffered aqueous solution at pH 7.5.
• 1. Add 0.2 ml reaction mixture to all wells; • 2. Add 10 ul test compound (or solvent blank) to appropriate wells, mix 20 seconds; • 3. Add 50 nanograms of sPLA2 (10 microliters) to appropriate wells; • 4. Incubate plate at 40° C. for 30 minutes; • 5. Read absorbance of wells at 405 nanometers with an automatic plate reader.
Tests were done in triplicate. Typically, compounds were tested at a final concentration of 5 ug/ml. […] Lack of color development at 405 nanometers evidenced inhibition. Compounds initially found to be active were re-assayed to confirm their activity and, if sufficiently active, IC50 values were determined. […] In all cases, % inhibition measured at 405 nanometers generated by enzyme reactions containing inhibitors relative to the uninhibited control reactions was determined. Each sample was titrated in triplicate and result values were averaged for plotting and calculation of IC50 values. IC50 values were determined by plotting log concentration versus inhibition values in the range from 10-90% inhibition.

SMILES	IC50
CCc1c(C(=O)C(N)=O)c2c(OCC(=O)OC)cc3c(c2n1Cc1ccccc1)CCC3 [Example 1, 2-[[3-(2-Amino-1,2-dioxoethyl)-2-ethyl-1-benzyl-1,6,7,8-tetrahydrocyclo-pent[g]indol-4-yl]oxy]acetic acid methyl ester]	0.108 µM
CCc1c(C(=O)C(N)=O)c2c(OCC(=O)O)cc3c(c2n1Cc1ccccc1)CCC3 [Example 2, 2-[[3-(2-Amino-1,2-dioxoethyl)-2-ethyl-1-benzyl-1,6,7,8-tetrahydrocyclo-pent[g]indol-4-yl]oxy]acetic acid]	0.013 µM
COC(=O)COc1cc2c(c3c1c(C(=O)C(N)=O)c(C)n3Cc1ccccc1)CCC2 [Example 3, 2-[[3-(2-Amino-1,2-dioxoethyl)-2-methyl-1-benzyl-1,6,7,8-tetrahydrocyclo-pent[g]indol-4-yl]oxy]acetic acid methyl ester]	0.106 µM
Cc1c(C(=O)C(N)=O)c2c(OCC(=O)O)cc3c(c2n1Cc1ccccc1)CCC3 [Example 4, 2-[[3-(2-Amino-1,2-dioxoethyl)-2-methyl-1-benzyl-1,6,7,8-tetrahydrocyclopent[g]indol-4-yl]oxy]acetic acid]	0.01 µM
Cc1c(C(=O)C(N)=O)c2c(OCC(=O)NS(=O)(=O)c3ccccc3)cc3c(c2n1Cc1ccccc1)CCC3 [Example 5, 2-[4-(2-Benzenesulfonylamino-2-oxoethoxy)-1-benzyl-2-methyl-1,6,7,8-tetrahydro-1-aza-as-indacen-3-yl]-2-oxoacetamide]	0.007 µM
COC(=O)COc1cc2c(c3c1c(C(=O)C(N)=O)c(C)n3Cc1cccc(F)c1)CCC2 [Example 6, 2-[[3-(2-Amino-1,2-dioxoethyl)-2-methyl-1-(3-fluorobenzyl)-1,6,7,8-tetrahydrocyclopent[g]indol-4-yl]oxy]acetic Acid methyl ester]	0.132 µM
Cc1c(C(=O)C(N)=O)c2c(OCC(=O)O)cc3c(c2n1Cc1cccc(F)c1)CCC3 [Example 7, 2-[[3-(2-Amino-1,2-dioxoethyl)-2-methyl-1-(3-fluorobenzyl)-1,6,7,8-tetrahydrocyclopent[g]indol-4-yl]oxy]acetic acid hydrate]	0.01 µM
COC(=O)COc1cc2c(c3c1c(C(=O)C(N)=O)c(C)n3Cc1ccccc1F)CCC2 [Example 8, 2-[[3-(2-Amino-1,2-dioxoethyl)-2-methyl-1-(2-fluorobenzyl)-1,6,7,8-tetrahydrocyclopent[g]indol-4-yl]oxy]acetic acid methyl ester]	0.073 µM
Cc1c(C(=O)C(N)=O)c2c(OCC(=O)O)cc3c(c2n1Cc1ccccc1F)CCC3 [Example 9, 2-[[3-(2-Amino-1,2-dioxoethyl)-2-methyl-1-(2-fluorobenzyl)-1,6,7,8-tetrahydrocyclopent[g]indol-4-yl]oxy]acetic acid]	0.009 µM
COC(=O)COc1cc2c(c3c1c(C(=O)C(N)=O)c(C)n3Cc1ccc(F)cc1)CCC2 [Example 10, 2-[[3-(2-Amino-1,2-dioxoethyl)-2-methyl-1-(4-fluorobenzyl)-1,6,7,8-tetrahydrocyclopent[g]indol-4-yl]oxy]acetic acid methyl ester]	0.806 µM
Cc1c(C(=O)C(N)=O)c2c(OCC(=O)O)cc3c(c2n1Cc1ccc(F)cc1)CCC3 [Example 11, 2-[[3-(2-Amino-1,2-dioxoethyl)-2-methyl-1-(4-fluorobenzyl)-1,6,7,8-tetrahydrocyclopent[g]indol-4-yl]oxy]acetic acid]	0.082 µM
CCc1c(C(=O)C(N)=O)c2c(OCC(=O)OC)cc3c(c2n1Cc1ccccc1)CCCC3 [Example 12, 2-[[3-(2-Amino-1,2-dioxoethyl)-1-benzyl-2-ethyl-6,7,8,9-tetrahydro-1H-benz[g]indol-4-yl]oxy]acetic acid methyl ester]	0.1 µM
CCc1c(C(=O)C(N)=O)c2c(OCC(=O)O)cc3c(c2n1Cc1ccccc1)CCCC3 [Example 13, 2-[[3-(2-Amino-1,2-dioxoethyl)-1-benzyl-2-ethyl-6,7,8,9-tetrahydro-1H-benz[g]indol-4-yl]oxy]acetic acid]	0.011 µM
COC(=O)COc1cc2c(c3c1c(C(=O)C(N)=O)c(C)n3Cc1ccccc1)CCCC2 [Example 14, 2-[[3-(2-Amino-1,2-dioxoethyl)-1-benzyl-2-methyl-6,7,8,9-tetrahydro-1H-benz[g]indol-4-yl]oxy]acetic acid methyl ester]	0.109 µM
Cc1c(C(=O)C(N)=O)c2c(OCC(=O)O)cc3c(c2n1Cc1ccccc1)CCCC3 [Example 15, 2-[[3-(2-Amino-1,2-dioxoethyl)-1-benzyl-2-methyl-6,7,8,9-tetrahydro-1H-benz[g]indol-4-yl]oxy]acetic acid]	0.01 µM
COC(=O)COc1cc2c(c3c1c(C(=O)C(N)=O)c(C)n3Cc1ccccc1Br)CCC2 [Example 16, 2-[[3-(2-Amino-1,2-dioxoethyl)-2-methyl-1-(2-bromobenzyl)-1,6,7,8-tetrahydrocyclopent[g]indol-4-yl]oxy]acetic acid methyl ester]	0.453 µM
Cc1c(C(=O)C(N)=O)c2c(OCC(=O)O)cc3c(c2n1Cc1ccccc1Br)CCC3 [Example 17, 2-[[3-(2-Amino-1,2-dioxoethyl)-2-methyl-1-(2-bromobenzyl)-1,6,7,8-tetrahydrocyclopent[g]indol-4-yl]oxy]acetic acid]	0.01 µM
COC(=O)COc1cc2c(c3c1c(C(=O)C(N)=O)c(C)n3Cc1ccccc1-c1ccccc1)CCC2 [Example 18, 2-[[3-(2-Amino-1,2-dioxoethyl)-2-methyl-1-(2-phenylbenzyl)-1,6,7,8-tetrahydrocyclopent[g]indol-4-yl]oxy]acetic acid methyl ester]	0.19 µM
Cc1c(C(=O)C(N)=O)c2c(OCC(=O)O)cc3c(c2n1Cc1ccccc1-c1ccccc1)CCC3 [Example 19, 2-[[3-(2-Amino-1,2-dioxoethyl)-2-methyl-1-(2-phenylbenzyl)-1,6,7,8-tetrahydrocyclopent[g]indol-4-yl]oxy]acetic acid]	0.035 µM
COC(=O)COc1cc2c(c3c1c(C(=O)C(N)=O)c(C)n3Cc1ccccc1-c1ccc(Br)s1)CCC2 [Example 20, 2-[[3-(2-amino-1,2-dioxoethyl)-1-[2-(5-bromothiophen-2-yl)benzyl]-2-methyl-1,6,7,8-tetrahydrocyclopent[g]indol-4-yl]oxy]acetic acid methyl ester]	0.638 µM
Cc1c(C(=O)C(N)=O)c2c(OCC(=O)O)cc3c(c2n1Cc1ccccc1-c1ccc(Br)s1)CCC3 [Example 21, 2-[[3-(2-amino-1,2-dioxoethyl)-2-methyl-1-[2-(5-bromothiophen-2-yl)benzyl]-1,6,7,8-tetrahydrocyclopent[g]indol-4-yl]oxy]acetic acid]	0.044 µM
